pIC50: −log10 of the molar value. Counter-ions that a name gives are not always drawn.
molecular target: T1, recombinant human tryptase, beta, from lung (Homo sapiens, UniProt P20231); assay: Inhibition of tryptase activity by coferons (Boc-Gln-Ala-Arg-AMC fluorescence); type: biochemical; conditions: coferon monomer alone; 1 nM tryptase
T1 construct: purchased Promega or Enzo Life Sciences G5631 or BML-SE418
Experimental: Stock solutions of recombinant human tryptase, beta, from lung (Promega: catalog number G5631, or Enzo Life Sciences: catalog number BML-SE418) were made at 30 μM, in solution with 50 μM heparin sulfate and 500 mM NaCl. Coferon tryptase inhibitor stock solutions were made at 50 mM in DMSO. Drug plates were made at 5× the final concentration in assay buffer (50 mM HEPES, 150 mM NaCl, 100 μM EDTA, pH 7.4, 0.02% Tween-20). A final concentration of 1 nM tryptase was used. When required, drugs were diluted in assay buffer immediately before use in 10-fold serial dilutions. […] The Softmax Pro (Molecular Devices) and Graphpad prism software were used to determine Vmax, and concentration-response curve IC50s, respectively.

T1 sequence (P20231 31-275): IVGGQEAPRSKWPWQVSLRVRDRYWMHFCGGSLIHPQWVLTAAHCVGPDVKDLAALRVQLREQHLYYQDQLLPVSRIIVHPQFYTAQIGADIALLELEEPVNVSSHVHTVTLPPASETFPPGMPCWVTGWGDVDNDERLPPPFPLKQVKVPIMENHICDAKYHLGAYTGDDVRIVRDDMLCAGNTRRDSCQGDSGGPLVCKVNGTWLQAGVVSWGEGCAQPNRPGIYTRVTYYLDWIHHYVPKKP

Structure (SMILES)	pIC50
NCc1cccc(C2CCN(C(=O)c3cccc4cc(O)c(O)cc34)CC2)c1 [Example 40, (4-(3-(aminomethyl)phenyl)piperidin-1-yl)(6,7-dihydroxynaphthalen-1-yl)methanone]	5.92
NCc1cccc(C2CCN(C(=O)c3cccc4cc(B(O)O)ccc34)CC2)c1 [Example 34, (5-(4-(3-(amino methyl)phenyl)piperidine-1-carbonyl)napthalen-2-yl)boronic acid]	6.32
NCc1cccc(C2CCN(C(=O)c3cccc(OCC(=O)N4C[C@@H](O)[C@@H](O)C4)c3)CC2)c1 [Example 50, 2-(3-(4-(3-(aminomethyl)phenyl)piperidine-1-carbonyl)phenoxy)-1-((3S,4R)-3,4-dihydroxypyrrolidin-1-yl)ethanone]	5.12
NCc1cccc(C2CCN(C(=O)/C=C/c3ccc(O)c(O)c3)CC2)c1 [Example 39, (E)-1-(4-(3-(aminomethyl)phenyl)piperidin-1-yl)-3-(3,4-dihydroxyphenyl)prop-2-en-1-one hydrochloride]	5.37
NCc1cccc(C2CCN(C(=O)c3cccc4ccc(B(O)O)cc34)CC2)c1 [Example 35, (8-(4-(3-(aminomethyl)phenyl)piperidine-1-carbonyl)naphthalen-2-yl)boronic acid]	4.82

Further molecules by rising pIC50, results first:

pIC50	Structure (SMILES)
5.09	NCc1cccc(C2CCN(C(=O)Cc3cccc(B(O)O)c3)CC2)c1 [Example 36, (3-(2-(4-(3-(aminomethyl)phenyl)piperidin-1-yl)-2-oxoethyl)phenyl)boronic acid]
5.98	NCc1cccc(C2CCN(C(=O)Cc3ccc(B(O)O)cc3)CC2)c1 [Example 37, (4-(2-(4-(3-(aminomethyl)phenyl)piperidin-1-yl)-2-oxoethyl)phenyl)boronic acid]
